Patent publication US8168821B2, “Cyclopropylacetic acid derivatives and use thereof” (Bayer Pharma Aktiengesellschaft, priority 2005, dated 2012)

Experiments:
[1] = tested on: saphenous artery rings; experiment: Vasorelaxant effect in vitro (phenylephrine-contracted artery rings); set-up: species or system Rabbits; settings: rabbit saphenous artery rings, contraction induced by phenylephrine, concentration reducing contraction by 50%
Description: Rabbits are anesthetized and sacrificed by intravenous injection of thiopental sodium (about 50 mg/kg) and exsanguinated. The saphenous artery is removed and divided into rings 3 mm wide. The rings are mounted singly on in each case a pair of triangular hooks open at the end and made of 0.3 mm-thick special wire (Remanium®). Each ring is placed under an initial tension in 5 ml organ baths with Krebs-Henseleit solution which is at 37° C., is gassed with carbogen and has the following composition: NaCl 119 mM; KCl 4.8 mM; CaCl2×2H2O 1 mM; MgSO4×7H2O 1.4 mM; KH2PO4 1.2 mM; NaHCO3 25 mM; glucose 10 mM; bovine serum albumin 0.001%. The force of contraction is detected with Statham UC2 cells, amplified and digitized via A/D converters (DAS-1802 HC, Keithley Instruments, Munich) and recorded in parallel on chart recorders. Contractions are induced by addition of phenylephrine.
After several (generally 4) control cycles, the substance to be investigated is added in each further run in increasing dosage, and the height of the contraction achieved under the influence of the test substance is compared with the height of the contraction reached in the last preceding run. The concentration necessary to reduce the contraction reached in the preceding control by 50% is calculated from this (IC50). The standard application volume is 5 μl. The proportion of DMSO in the bath solution corresponds to 0.1%.

[2] = target: T1, Heme-containing sGC (recombinant soluble guanylate cyclase) (Rattus norvegicus, UniProt P20595); experiment: Stimulation of recombinant soluble guanylate cyclase (sGC) in vitro, heme-containing enzyme; format: biochemical
T1 construct: made in house
T1 sequence (P20595 1-619): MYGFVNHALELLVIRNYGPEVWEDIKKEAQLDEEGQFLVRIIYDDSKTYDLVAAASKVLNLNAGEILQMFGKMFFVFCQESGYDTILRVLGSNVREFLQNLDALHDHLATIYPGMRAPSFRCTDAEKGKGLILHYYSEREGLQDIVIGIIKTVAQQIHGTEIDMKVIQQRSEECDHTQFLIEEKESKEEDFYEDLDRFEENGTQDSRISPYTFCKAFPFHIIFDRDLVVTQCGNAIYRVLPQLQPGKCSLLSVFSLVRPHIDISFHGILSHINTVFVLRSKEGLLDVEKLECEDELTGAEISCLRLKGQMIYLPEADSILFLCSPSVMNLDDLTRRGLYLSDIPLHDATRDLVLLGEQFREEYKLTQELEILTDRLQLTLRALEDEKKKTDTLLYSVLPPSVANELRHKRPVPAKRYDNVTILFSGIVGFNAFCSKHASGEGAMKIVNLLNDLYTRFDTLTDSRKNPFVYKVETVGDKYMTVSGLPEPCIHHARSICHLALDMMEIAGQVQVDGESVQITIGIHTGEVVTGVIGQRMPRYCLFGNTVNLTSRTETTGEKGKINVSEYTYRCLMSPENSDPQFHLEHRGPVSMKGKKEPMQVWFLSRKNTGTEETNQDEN
T1 sequence (P19686 1-690 partner): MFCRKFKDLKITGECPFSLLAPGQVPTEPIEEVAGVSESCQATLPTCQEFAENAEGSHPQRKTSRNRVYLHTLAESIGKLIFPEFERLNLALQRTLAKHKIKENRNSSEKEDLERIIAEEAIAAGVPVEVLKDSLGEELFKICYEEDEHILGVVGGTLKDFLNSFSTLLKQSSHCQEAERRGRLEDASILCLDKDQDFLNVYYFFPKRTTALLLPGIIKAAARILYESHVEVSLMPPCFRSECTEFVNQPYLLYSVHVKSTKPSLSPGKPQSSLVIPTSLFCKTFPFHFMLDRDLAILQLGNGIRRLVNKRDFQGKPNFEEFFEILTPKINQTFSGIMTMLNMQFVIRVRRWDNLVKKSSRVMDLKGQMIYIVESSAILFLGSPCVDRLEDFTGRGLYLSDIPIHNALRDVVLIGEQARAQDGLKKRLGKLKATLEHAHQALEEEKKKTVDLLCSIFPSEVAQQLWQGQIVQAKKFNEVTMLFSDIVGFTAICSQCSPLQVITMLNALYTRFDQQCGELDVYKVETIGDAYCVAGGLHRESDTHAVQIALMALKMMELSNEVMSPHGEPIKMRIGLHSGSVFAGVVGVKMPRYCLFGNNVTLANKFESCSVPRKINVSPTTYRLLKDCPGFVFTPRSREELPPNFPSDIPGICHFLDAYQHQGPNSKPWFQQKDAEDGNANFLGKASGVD
Excerpt: Hoenicka, E. M. Becker, H. Apeler, T. Sirichoke, H. Schroeder, R. Gerzer and J.-P. Stasch, “Purified soluble guanylyl cyclase expressed in a baculovirus/Sf9 system: Stimulation by YC-1, nitric oxide, and carbon oxide”, J. Mol. Med. 77 (1999), 14-23. The heme-free guanylate cyclase is obtained by adding Tween 20 to the sample buffer (0.5% in the final concentration).
(§1) The activation of sGC by a test substance is reported as n-fold stimulation of the basal activity.

[3] = target: T2, Heme-free sGC (recombinant soluble guanylate cyclase) (Rattus norvegicus, UniProt P20595); experiment: Stimulation of recombinant soluble guanylate cyclase (sGC) in vitro, heme-free enzyme; format: biochemical; settings: 10 μM Example 9; heme-free enzyme obtained with 0.5% Tween 20
T2 construct: made in house
T2 sequence (P20595 1-619): T1 sequence (P20595 1-619)
T2 sequence (P19686 1-690 partner): T1 sequence (P19686 1-690 partner)
Description: Investigations on the stimulation of recombinant soluble guanylate cyclase (sGC) by the compounds according to the invention with and without sodium nitroprusside, and with and without the heme-dependent sGC inhibitor 1H-1,2,4-oxadiazole-(4,3a)-quinoxalin-1-one (ODQ) are carried out by the method described in detail in the following reference: M. Hoenicka, E. M. Becker, H. Apeler, T. Sirichoke, H. Schroeder, R. Gerzer and J.-P. Stasch, “Purified soluble guanylyl cyclase expressed in a baculovirus/Sf9 system: Stimulation by YC-1, nitric oxide, and […]”, J. Mol. Med. 77 (1999), 14-23. The heme-free guanylate cyclase is obtained by adding Tween 20 to the sample buffer (0.5% in the final concentration).
as §1

CC(C)(C)c1ccc(COc2ccccc2/C=C/C(CCc2ccc(C(=O)O)cc2)CCC2(CC(=O)O)CC2)cc1 (racemic) [Example 2, 4-((4E)-5-{2-[(4-tert-Butylbenzyl)oxy]phenyl}-3-{2-[1-(carboxymethyl)cyclopropyl]ethyl}pent-4-en-1-yl)benzoic acid]
IC50 ([1]; Oryctolagus cuniculus): 2.9 nM

CC(C)(C)c1ccc(COc2ccccc2/C=C/C(CCc2ccc(C(=O)O)cc2)CCC2(CC(=O)O)CC2)cc1 (racemic) [Example 3, 4-((4E)-5-{2-[(4-tert-Butylbenzyl)oxy]phenyl}-3-{2-[1-(carboxymethyl)cyclopropyl]ethyl}pent-4-en-1-yl)benzoic acid]
IC50 [1]: 5.8 nM

CC(C)(C)c1ccc(COc2ccccc2/C=C/C(CCC2(CC(=O)O)CC2)Cc2ccc(C(=O)O)cc2)cc1 (racemic) [Example 5]
IC50 ([1]; Oryctolagus cuniculus): 58 nM

CC(C)(C)c1ccc(COc2ccccc2/C=C/C(CCC2(CC(=O)O)CC2)Cc2ccc(C(=O)O)cc2)cc1 (racemic) [Example 6, 4-((3E)-4-{2-[(4-tert-Butylbenzyl)oxy]phenyl}-2-{2-[1-(carboxymethyl)cyclopropyl]ethyl}but-3-en-1-yl)benzoic acid]
IC50 [1]: 33 nM

O=C(O)CC1(CCC(/C=C/c2ccccc2OCCCCCc2ccccc2)Cc2ccc(C(=O)O)cc2)CC1 (racemic) [Example 8, 4-((3E)-2-{2-[1-(Carboxymethyl)cyclopropyl]ethyl}-4-{2-[(5-phenylpentyl)oxy]phenyl}but-3-en-1-yl)benzoic acid]
IC50 [1]: 1020 nM

O=C(O)CC1(CCC(/C=C/c2ccccc2OCCCCCc2ccccc2)Cc2ccc(C(=O)O)cc2)CC1 (racemic) [Example 9, 4-((3E)-2-{2-[1-(Carboxymethyl)cyclopropyl]ethyl}-4-{2-[(5-phenylpentyl)oxy]phenyl}but-3-en-1-yl)benzoic acid]
IC50 [1]: 406 nM | Stimulation (n-fold) of heme-containing sGC, Basal ([2]; 10 μM Example 9, no addition): 8.0 n-fold | Stimulation (n-fold) of heme-containing sGC, +0.1 μM DEA/NO ([2]; 10 μM Example 9 plus 0.1 μM DEA/NO): 109.2 n-fold | Stimulation (n-fold) of heme-containing sGC, +10 μM ODQ ([2]; 10 μM Example 9 plus 10 μM ODQ): 41.0 n-fold | Synergism of combination with NO donor DEA/NO on heme-containing sGC ([2]; combination of Example 9 and DEA/NO): no synergistic effect | Effect of heme-dependent sGC inhibitor ODQ on sGC activation ([2]; with ODQ): not blocked | Stimulation (n-fold) of heme-free sGC, Basal [3]: 21.0 n-fold

CCN(CC)[N+]([O-])=NO [DEA/NO, 2-(N,N-diethylamino)diazenolate 2-oxide, reference compound]
Stimulation (n-fold) of heme-containing sGC by DEA/NO alone ([2]; 0.1 μM DEA/NO, 0.0 μM Example 9): 101.0 n-fold

O=c1onc2cnc3ccccc3n12 [ODQ, 1H-1,2,4-oxadiazole-(4,3a)-quinoxalin-1-one, reference compound]
Stimulation (n-fold) of heme-containing sGC with ODQ alone ([2]; 10 μM ODQ, 0.0 μM Example 9): 3.7 n-fold
